The compounds below were run on MM.1S cells (assay: Proliferation inhibition (IC50) in multiple myeloma cells, cell viability with WST/CCK-8 reagent). Conditions: Homo sapiens, MM1.S, 72 h, read-out: IC50 (half inhibitory concentration).
Description: Multiple myeloma cell line: MM.1S (B lymphoblast), purchased from ATCC (American Type Culture Collection). Culture medium was RPMI1640 supplemented with 10% FBS and 1% Penicillin-Streptomycin. The cells used were identified as correct cells by STR cells and negative for mycoplasma by routine inspections.
IC50 values of the compounds of the present disclosure were measured using Cell Titer Blue, Cell Titer GLO, or WST reagent from Promega Company. Assay details are as follows: Cells were seeded in 100 μL RPMI1640 complete medium containing serum at a density of 15,000 cells/well.
The experiment was repeated more than three times.
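Also: MM.1S B-lymphoblast cells at 15,000 per well in 100 µL serum-containing RPMI1640, experiment run more than three times.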

| Compound | IC50 [pM] |
| --- | --- |
| CC(NCCCCCCNc1cccc2c1C(=O)N(C1CCC(=O)NC1=O)C2=O)C12CC3CC(CC(C3)C1)C2 (centres unmarked) [SIAIS1222191, 4-((6-((1-(adamantan-1-yl)ethyl)amino)hexyl)amino)-2-(2,6-dioxopiperidin-3-yl)isoindoline-1,3-dione] | 2220 |
| CC(NCCCCCCCNc1cccc2c1C(=O)N(C1CCC(=O)NC1=O)C2=O)C12CC3CC(CC(C3)C1)C2 (centres unmarked) [SIAIS1222193] | 2690 |
| O=C1CCC(N2Cc3c(CCCCCCCNC45CC6CC(CC(C6)C4)C5)cccc3C2=O)C(=O)N1 (centres unmarked) [SIAIS1224041, 3-(4-(7-((adamantan-1-yl)amino)heptyl)-1-oxoisoindolin-2-yl)piperidine-2,6-dione] | 1110 |
| O=C1CCC(N2Cc3c(CCCCCCNC45CC6CC(CC(C6)C4)C5)cccc3C2=O)C(=O)N1 (centres unmarked) [SIAIS1224043, 3-(4-(6-((adamantan-1-yl)amino)hexyl)-1-oxoisoindolin-2-yl)piperidine-2,6-dione] | 630 |
| O=C1CCC(N2Cc3c(NCc4ccc(CCCNC56CC7CC(CC(C7)C5)C6)cc4)cccc3C2=O)C(=O)N1 (centres unmarked) [SIAIS1227077, 3-(4-((4-(3-((adamantan-1-yl)amino)propyl)benzyl)amino)-1-oxoisoindolin-2-yl)piperidine-2,6-dione] | 1930 ± 310 |
| O=C1CCC(N2C(=O)c3cccc(OCc4ccc(CCNC56CC7CC(CC(C7)C5)C6)cc4)c3C2=O)C(=O)N1 (centres unmarked) [SIAIS1241167, 4-((4-(2-((adamantan-1-yl)amino)ethyl)benzyl)oxy)-2-(2,6-dioxopiperidin-3-yl)isoindoline-1,3-dione] | 1950 |
| O=C1CCC(N2C(=O)c3ccc(NCCCCCCNC45CC6CC(CC(C6)C4)C5)cc3C2=O)C(=O)N1 (centres unmarked) [SIAIS1242067, 5-((6-((adamantan-1-yl)amino)hexyl)amino)-2-(2,6-dioxopiperidin-3-yl)isoindoline-1,3-dione] | 17700 |
| O=C1CCC(N2C(=O)c3ccc(NCCCCCNC45CC6CC(CC(C6)C4)C5)cc3C2=O)C(=O)N1 (centres unmarked) [SIAIS1242069, 5-((5-((adamantan-1-yl)amino)pentyl)amino)-2-(2,6-dioxopiperidin-3-yl)isoindoline-1,3-dione] | 2270 |
| O=C1CCC(N2Cc3c(NCCCCCCCNC45CC6CC(CC4C6)C5)cccc3C2=O)C(=O)N1 (centres unmarked) [SIAIS1242071, 3-(4-((7-((hexahydro-2,5-methanopentalen-3a(1H)-yl)amino)heptyl)amino)-1-oxoisoindolin-2-yl)piperidine-2,6-dione] | 2460 |
| O=C1CCC(N2Cc3c(OCCCCCCC(=O)NC45CC6CC(CC(C6)C4)C5)cccc3C2=O)C(=O)N1 (centres unmarked) [SIAIS1242075, N-(adamantan-1-yl)-7-((2-(2,6-dioxopiperidin-3-yl)-1-oxoisoindolin-4-yl)oxy)heptanamide] | 877 |
| Nc1cccc2c1C(=O)N(C1CCC(=O)NC1=O)C2=O (centres unmarked) [pomalidomide, reference compound] | 9400 ± 1300 |

Compounds with a lower IC50, results first:

| IC50 [pM] | Compound |
| --- | --- |
| 534 | O=C1CCC(N2Cc3c(OCCCCCCCNC4CC5(CCC5)C4)cccc3C2=O)C(=O)N1 (centres unmarked) [SIAIS1224013, 3-(1-oxo-4-((7-(spiro[3.3]heptan-2-ylamino)heptyl)oxy)isoindolin-2-yl)piperidine-2,6-dione] |
| 426 | O=C1CCC(N2Cc3c(OCCCCCCCCNC45CC6CC(CC(C6)C4)C5)cccc3C2=O)C(=O)N1 (centres unmarked) [SIAIS1222167, 3-(4-((8-((adamantan-1-yl)amino)octyl)oxy)-1-oxoisoindolin-2-yl)piperidine-2,6-dione] |
| 324 | O=C1CCC(N2C(=O)c3cccc(NCCCCCCCNC4CC5(CCC5)C4)c3C2=O)C(=O)N1 (centres unmarked) [SIAIS1222189, 2-(2,6-dioxopiperidin-3-yl)-4-((7-(spiro[3.3]heptan-2-ylamino)heptyl)amino)isoindoline-1,3-dione] |
| 320 ± 90 | O=C1CCC(N2Cc3c(NCc4ccc(CCNC56CC7CC(CC(C7)C5)C6)cc4)cccc3C2=O)C(=O)N1 (centres unmarked) [SIAIS1227027, 3-(4-((4-(2-((adamantan-1-yl)amino)ethyl)benzyl)amino)-1-oxoisoindolin-2-yl)piperidine-2,6-dione] |
| 280 | O=C1CCC(N2Cc3c(OCc4ccc(CNC56CC7CC(CC(C7)C5)C6)cc4)cccc3C2=O)C(=O)N1 (centres unmarked) [SIAIS1228157, 3-(4-((4-(((adamantan-1-yl)amino)methyl)benzyl)oxy)-1-oxoisoindolin-2-yl)piperidine-2,6-dione] |
| 267 | O=C1CCC(N2Cc3c(C#CCCCCCCNC45CC6CC(CC4C6)C5)cccc3C2=O)C(=O)N1 (centres unmarked) [SIAIS1242057, 3-(4-(8-((hexahydro-2,5-methanopentalen-3a(1H)-yl)amino)oct-1-yn-1-yl)-1-oxoisoindolin-2-yl)piperidine-2,6-dione] |
| 241 | O=C1CCC(N2C(=O)c3cccc(NCCCCCCC(=O)NC45CC6CC(CC(C6)C4)C5)c3C2=O)C(=O)N1 (centres unmarked) [SIAIS1242077, N-(adamantan-1-yl)-7-((2-(2,6-dioxopiperidin-3-yl)-1,3-dioxoisoindolin-4-yl)amino)heptanamide] |
| 123 | O=C1CCC(N2Cc3c(OCc4ccc(CCNC56CC7CC(CC(C7)C5)C6)cc4)cccc3C2=O)C(=O)N1 (centres unmarked) [SIAIS1241169, 3-(4-((4-(2-((adamantan-1-yl)amino)ethyl)benzyl)oxy)-1-oxoisoindolin-2-yl)piperidine-2,6-dione] |
| 107 | O=C1CCC(N2Cc3c(NCc4ccc(CCNC56CC7CC(CC5C7)C6)cc4)cccc3C2=O)C(=O)N1 (centres unmarked) [SIAIS1242061, 3-(4-((4-(2-((hexahydro-2,5-methanopentalen-3a(1H)-yl)amino)ethyl)benzyl)amino)-1-oxoisoindolin-2-yl)piperidine-2,6-dione] |
| 76 | O=C1CCC(N2C(=O)c3cccc(NCCCCCCCNC45CC6CC(CC4C6)C5)c3C2=O)C(=O)N1 (centres unmarked) [SIAIS1242041, 2-(2,6-dioxopiperidin-3-yl)-4-((7-((hexahydro-2,5-methanopentalen-3a(1H)-yl)amino)heptyl)amino)isoindoline-1,3-dione] |
| 69 | O=C1CCC(N2Cc3c(OCCCCCCCNC45CC6CC(CC4C6)C5)cccc3C2=O)C(=O)N1 (centres unmarked) [SIAIS1242043, 3-(4-((7-((hexahydro-2,5-methanopentalen-3a(1H)-yl)amino)heptyl)oxy)-1-oxoisoindolin-2-yl)piperidine-2,6-dione] |
| 52 | CN(CCCCCCCOc1cccc2c1CN(C1CCC(=O)NC1=O)C2=O)C12CC3CC(CC(C3)C1)C2 (centres unmarked) [SIAIS1222181, 3-(4-((7-((adamantan-1-yl)(methyl)amino)heptyl)oxy)-1-oxoisoindolin-2-yl)piperidine-2,6-dione] |
